From US11179383B2 (Gilead Sciences, Inc., priority 2018, dated 2021)
One block for each molecule: values may come before it.

Molecular target: T1, α4β7 integrin (Homo sapiens, UniProt P13612+P26010)
T1 construct: monitoring the capture of α4β7 integrin expressing cells on a recombinant MadCAM-1 extracellular domain-coated plate; endogenous in cells; host or cells: RPMI8866 cells
T1 sequence (P13612 34-1032): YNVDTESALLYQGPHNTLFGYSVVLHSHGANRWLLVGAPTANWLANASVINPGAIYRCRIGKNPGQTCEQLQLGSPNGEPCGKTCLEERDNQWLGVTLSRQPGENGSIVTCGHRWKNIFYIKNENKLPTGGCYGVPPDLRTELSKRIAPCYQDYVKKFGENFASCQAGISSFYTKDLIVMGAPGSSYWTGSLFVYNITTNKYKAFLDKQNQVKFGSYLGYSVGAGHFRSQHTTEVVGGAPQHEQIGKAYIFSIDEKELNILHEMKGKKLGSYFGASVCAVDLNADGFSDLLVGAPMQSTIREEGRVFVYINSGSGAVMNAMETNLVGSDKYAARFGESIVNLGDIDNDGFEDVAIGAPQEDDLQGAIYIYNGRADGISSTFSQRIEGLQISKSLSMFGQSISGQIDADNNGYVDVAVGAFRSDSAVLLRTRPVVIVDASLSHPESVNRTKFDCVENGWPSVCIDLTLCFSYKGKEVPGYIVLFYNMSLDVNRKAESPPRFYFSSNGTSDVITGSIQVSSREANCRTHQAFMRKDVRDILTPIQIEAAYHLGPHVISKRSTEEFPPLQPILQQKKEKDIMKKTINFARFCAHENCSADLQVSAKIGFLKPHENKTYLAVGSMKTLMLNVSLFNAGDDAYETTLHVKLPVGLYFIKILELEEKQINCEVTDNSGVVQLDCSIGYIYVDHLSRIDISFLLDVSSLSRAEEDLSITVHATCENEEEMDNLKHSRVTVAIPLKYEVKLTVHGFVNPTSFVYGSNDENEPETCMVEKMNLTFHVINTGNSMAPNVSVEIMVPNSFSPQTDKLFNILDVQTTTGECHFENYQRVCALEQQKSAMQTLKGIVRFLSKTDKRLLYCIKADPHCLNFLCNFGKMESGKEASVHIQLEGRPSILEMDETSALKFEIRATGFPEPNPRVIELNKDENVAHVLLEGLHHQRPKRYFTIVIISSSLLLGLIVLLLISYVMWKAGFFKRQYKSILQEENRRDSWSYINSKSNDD
T1 sequence (P26010 20-798): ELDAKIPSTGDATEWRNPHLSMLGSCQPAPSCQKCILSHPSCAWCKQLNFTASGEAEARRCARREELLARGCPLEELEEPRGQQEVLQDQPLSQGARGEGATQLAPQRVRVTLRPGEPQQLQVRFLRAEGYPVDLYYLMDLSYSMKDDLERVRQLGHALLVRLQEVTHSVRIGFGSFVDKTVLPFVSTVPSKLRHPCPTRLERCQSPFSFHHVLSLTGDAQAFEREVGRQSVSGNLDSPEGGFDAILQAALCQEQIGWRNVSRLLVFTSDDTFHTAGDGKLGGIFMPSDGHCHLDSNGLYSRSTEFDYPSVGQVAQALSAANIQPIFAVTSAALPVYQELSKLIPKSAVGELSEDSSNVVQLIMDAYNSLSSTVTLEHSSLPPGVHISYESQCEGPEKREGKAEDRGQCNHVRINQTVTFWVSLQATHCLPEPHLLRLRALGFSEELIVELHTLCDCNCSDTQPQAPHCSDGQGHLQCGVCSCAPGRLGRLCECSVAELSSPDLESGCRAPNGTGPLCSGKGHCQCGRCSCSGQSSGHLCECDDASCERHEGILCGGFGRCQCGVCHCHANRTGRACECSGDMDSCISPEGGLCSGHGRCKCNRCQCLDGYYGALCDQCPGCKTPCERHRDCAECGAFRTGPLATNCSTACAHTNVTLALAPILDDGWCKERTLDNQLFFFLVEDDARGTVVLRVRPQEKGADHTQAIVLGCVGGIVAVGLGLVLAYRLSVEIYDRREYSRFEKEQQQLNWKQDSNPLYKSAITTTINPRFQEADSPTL
Assay: α4β7 Integrin Cell Capture Assay
Type: cell-based
Conditions: capture of α4β7 integrin expressing RPMI8866 cells on recombinant MadCAM-1 extracellular domain-coated plate; DMEM+0.5% FBS+0.5 mM MnCl2; read-out: EC50 α4β7
Method in brief: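 RPMI8866 cells in DMEM + 0.5% FBS + 0.5 mM MnCl2 preincubated with compound 1 h at 37 °C, then allowed to bind 30 min at 37 °C to plates coated with MAdCAM-1 extracellular domain (1.0 μg/mL). Cells fixed with glutaraldehyde, Hoechst-stained, imaged and bound cells counted; EC50 from cell count versus concentration.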

SMILES: CCOCc1cc(OC)c(-c2ccc(C[C@@H](NC(=O)c3c(F)cc(NS(=O)(=O)c4ccc(-c5ccnc(F)c5)cc4)cc3F)C(=O)O)c3cnn(C)c23)c(OC)c1 (single isomer, unassigned) [Example 148]
EC50: 3.6 nM

SMILES: Cc1c(-c2ccc(C[C@H](NC(=O)c3c(Cl)cccc3Cl)C(=O)O)c3ncccc23)c(=O)n(C)c2ccc(Cl)cc12 [Example 67, (S)-3-(6-chloro-1,4-dimethyl-2-oxo-1,2-dihydro-[3,5′-biquinolin]-8′-yl)-2-(2,6-dichlorobenzamido)propanoic acid]
EC50: 2.5 nM

SMILES: Cc1c(-c2ccc(C[C@H](NC(=O)c3c(Cl)cccc3Cl)C(=O)O)c3ncccc23)c(=O)n(C)c2ccc(F)cc12 [Example 10, (S)-2-(2,6-dichlorobenzamido)-3-(6-fluoro-1,4-dimethyl-2-oxo-1,2-dihydro-[3,5′-biquinolin]-8′-yl)propanoic acid]
EC50: 1.1 nM

SMILES: Cc1c(-c2ccc(C[C@H](NC(=O)c3c(Cl)cccc3Cl)C(=O)O)c3ncccc23)c(=O)n(C)c2ccccc12 [Example 34, (S)-2-(2,6-dichlorobenzamido)-3-(1,4-dimethyl-2-oxo-1,2-dihydro-[3,5′-biquinolin]-8′-yl)propanoic acid]
EC50: 4 nM

SMILES: COc1cc(C)n(C)c(=O)c1-c1ccc(C[C@H](NC(=O)c2c(F)cc(N3CCOC[C@@H]3C(F)(F)F)cc2F)C(=O)O)c2ccccc12 (single isomer, unassigned) [Example 124]
EC50: 0.2 nM

SMILES: Cc1c(-c2ccc(C[C@H](NC(=O)c3c(F)cc(N4CCOC[C@@H]4C(F)(F)F)cc3F)C(=O)O)c3ncccc23)c(=O)n(C)c2ccc(F)cc12 (single isomer, unassigned) [Example 87]
EC50: 2.9 nM

SMILES: Cn1c2c(c(C(F)(F)F)c(-c3ccc(C[C@H](NC(=O)c4c(Cl)cccc4Cl)C(=O)O)c4ncccc34)c1=O)CCC2 [Example 68, (S)-2-(2,6-dichlorobenzamido)-3-(5-(1-methyl-2-oxo-4-(trifluoromethyl)-2,5,6,7-tetrahydro-1H-cyclopenta[b]pyridin-3-yl)quinolin-8-yl)propanoic acid]
EC50: 2.7 nM

SMILES: O=C(N[C@@H](Cc1ccc(-c2cccc3c2OCCC3)c2ccccc12)C(=O)O)c1c(F)cccc1F [Example 112, (S)-3-(4-(chroman-8-yl)naphthalen-1-yl)-2-(2,6-difluorobenzamido) propanoic acid]
EC50: 53.3 nM

SMILES: Cn1c(=O)c(-c2ccc(C[C@H](NC(=O)c3c(F)cccc3F)C(=O)O)c3ncccc23)cc2ccccc21 [Example 84, (S)-2-(2,6-difluorobenzamido)-3-(1-methyl-2-oxo-1,2-dihydro-[3,5′-biquinolin]-8′-yl)propanoic acid]
EC50: 10.9 nM

SMILES: COc1ncc(F)cc1-c1ccc(C[C@H](NC(=O)c2c(Cl)cccc2Cl)C(=O)O)c2ncccc12 [Example 28, (S)-2-(2,6-dichlorobenzamido)-3-(5-(5-fluoro-2-methoxypyridin-3-yl)quinolin-8-yl)propanoic acid]
EC50: 194 nM

SMILES: COc1cc(F)cc(C(F)(F)F)c1-c1ccc(C[C@H](NC(=O)c2c(Cl)cccc2Cl)C(=O)O)c2ncccc12 [Example 35, (2S)-2-(2,6-dichlorobenzamido)-3-(5-(4-fluoro-2-methoxy-6-(trifluoromethyl)phenyl)quinolin-8-yl)propanoic acid]
EC50: 53.5 nM

The remaining lines, values ahead:

EC50: 0.22 nM
SMILES: Cc1nc(-c2ccc(C[C@H](NC(=O)c3c(F)cc(N4CCOC[C@@H]4C(F)(F)F)cc3F)C(=O)O)c3ccccc23)c(=O)n(C)c1C [Example 177]

EC50: 0.3 nM
SMILES: Cc1c(-c2ccc(C[C@H](NC(=O)c3c(F)cc(N4CCOC[C@@H]4C(F)(F)F)cc3F)C(=O)O)c3ccccc23)c(=O)n(C)c(=O)n1C [Example 138, (S)-2-(2,6-difluoro-4-((R)-3-(trifluoromethyl)morpholino)benzamido)-3-(4-(1,3,6-trimethyl-2,4-dioxo-1,2,3,4-tetrahydropyrimidin-5-yl)naphthalen-1-yl)propanoic acid]

EC50: 1.7 nM
SMILES: COc1cccc(OC)c1-c1ccc(C[C@H](NC(=O)c2c(F)cc(NS(=O)(=O)c3ccc(-c4ccnc(F)c4)cc3)cc2F)C(=O)O)c2ncccc12 [Example 101, (S)-2-(2,6-difluoro-4-((4-(2-fluoropyridin-4-yl)phenyl)sulfonamido)benzamido)-3-(5-(2,6-dimethoxyphenyl)quinolin-8-yl)propanoic acid]

EC50: 131 nM
SMILES: Cc1c(-c2ccc(C[C@H](NC(=O)c3c(Cl)cccc3Cl)C(=O)O)c3ncccc23)c(=O)n(C)c2cc(Cl)ccc12 [Example 74, (S)-3-(7-chloro-1,4-dimethyl-2-oxo-1,2-dihydro-[3,5′-biquinolin]-8′-yl)-2-(2,6-dichlorobenzamido)propanoic acid]

EC50: 0.4 nM
SMILES: CC[C@@H](Nc1cc(F)c(C(=O)N[C@@H](Cc2ccc(-c3c(C)n(C)c(=O)n(C)c3=O)c3ccccc23)C(=O)O)c(F)c1)C(F)(F)F [Example 139, (S)-2-(2,6-difluoro-4-(((R)-1,1,1-trifluorobutan-2-yl)amino)benzamido)-3-(4-(1,3,6-trimethyl-2,4-dioxo-1,2,3,4-tetrahydropyrimidin-5-yl)naphthalen-1-yl)propanoic acid]

EC50: 82 nM
SMILES: Cc1c(-c2ccc(C[C@H](NC(=O)c3c(Cl)cccc3Cl)C(=O)O)c3ccccc23)c(=O)n(C)c2ccccc12 (single isomer, unassigned) [Example 117]

EC50: 161 nM
SMILES: COc1c(-c2ccc(C[C@H](NC(=O)c3c(Cl)cccc3Cl)C(=O)O)c3ncccc23)ccc(F)c1F [Example 43, (S)-2-(2,6-dichlorobenzamido)-3-(5-(3,4-difluoro-2-methoxyphenyl)quinolin-8-yl)propanoic acid]

EC50: 1.3 nM
SMILES: COc1cccc(OC)c1-c1ccc(C[C@H](NC(=O)c2c(F)cc(NS(=O)(=O)c3ccc(-n4cncn4)cc3)cc2F)C(=O)O)c2ccncc12 (single isomer, unassigned) [Example 164]

EC50: 1.1 nM
SMILES: Cc1ccnc(-c2ccc(C[C@H](NC(=O)c3c(F)cc(N4CCOC[C@@H]4C(F)(F)F)cc3F)C(=O)O)c3ccccc23)c1C(F)(F)F [Example 122]

EC50: 16.7 nM
SMILES: Cn1cc(Cl)cc(-c2ccc(C[C@H](NC(=O)c3c(Cl)cccc3Cl)C(=O)O)c3ncccc23)c1=O [Example 29, (S)-3-(5-(5-chloro-1-methyl-2-oxo-1,2-dihydropyridin-3-yl)quinolin-8-yl)-2-(2,6-dichlorobenzamido)propanoic acid]
